Here are results for 3 molecules from publication PMC7512555 (mBio, 2020).

In data set [1] the target is T1, TP0037 (TpD-LDH; rTP0037) (Treponema pallidum, UniProt O83080).
T1 construct: gene ldhD; full-length, residues 1-331, in pProEX-HTb (vector-derived tag); monomer 39,190 g/mol, homodimer in solution
The data set is described as follows: colorimetric NADH-formation kit assay (A575/A605). The note with it: co-substrate NAD+, 37°C, 30 min. Format: biochemical.

Data set [2] concerns the molecule itself. The data set is described as follows: static light scattering; Dynapro Nanostar, 25°C, storage buffer (20 mM HEPES pH 7.5, 100 mM NaCl, 2 mM BOG), 1.54 mg/ml, three technical replicates; DLS monitored simultaneously.

On to `C[C@@H](O)C(=O)O` [D-lactate], for which the “colorimetric NADH-formation kit assay (A575/A605)” value in data set [1] was “monitor the amount of NADH formation in the presence of NAD^+, D-lactate, and the enzyme”. On to `C[C@H](O)C(=O)O` [L-lactate], for which, in data set [1] (very weak substrate), the “colorimetric NADH-formation kit assay (A575/A605)” value is reported as “only about one-thousandth of the activity was observed when using L-lactate as the substrate”.

B1: TP0037, D-lactate dehydrogenase of Treponema pallidum (enzyme, UniProt O83080 1-331, looked up)
chain: MRCVVFNLREEEAPYVEKWKQSHPGVVVDTYEEPLTAKNKELLKGYEGLVVMQFLAMEDEVYDYMGACKLKVLSTRTAGFDMYNATLLKKHGIRLTNVPSYSPNAIGEYALAAALQLTRHAREIETFVRKRDFRWQKPILSKELRCSRVGILGTGRIGQAAARLFKGVGAQVVGFDPYPNDAAKEWLTYVSMDELLSTSDVISLHMPATKDSHHLINAKTIAQMKDGVYLVNTARGAVIDSQALLDSLDKGKIAGAALDAYEFEGPYIPKDNGNNPITDTVYARLVAHERIIYTPHIAFYTETAIENMVFNSLDACTTVLRGEPCAAEIKL
notes: TP0037 (D-lactate dehydrogenase), Treponema pallidum, amino acid residues 1 to 331, amplified from genomic DNA; called full-length in the results; also called rTP0037; TpD-LDH; source: E. coli BL21(DE3), purified to apparent homogeneity
The stoichiometry N is a count of units in the complex or per binding partner. Regarding B1, the “stoichiometry N” value in data set [2] stood at 2.
